Data from paper PMC10739260, “Shape-Based Virtual Screening of a Billion-Compound Library Identifies Mycobacterial Lipoamide Dehydrogenase Inhibitors” (ACS Bio & Med Chem Au, 2023).
Like-named read-outs stand apart in the source and are kept apart here.

Columns and labels:
[1] = tested on: Mtb; experiment: Mtb MIC assay (bacterial growth inhibition); type: cell-based, Mycobacterium tuberculosis; conditions: for Mtb MIC: Table S1, known actives used as probes in GPU Shape screen
[2] = target: T1, Mtb Lpd (Mycobacterium tuberculosis, UniProt P9WHH9); experiment: Lpd enzyme assay (spectrophotometric, DTNB, lipoamide, NADH); type: biochemical; conditions: for potency improvement over des-methyl screen hit: methylated analogue vs Z1765676493 / Z819807984, Lpd IC50; for IC50: dose response 100 to 0.005 μM, values marked * from one replicate; for inhibition at 10 µM: compound at 10 μM, read-out: LPD %inh ± SD at 10 μM
T1 construct: made in house
Experimental: The Lpd enzyme assay was performed at a CRO with a previously reported protocol.[9],[11] Briefly, the Lpd activity was measured by a spectrophotometric assay with DTNB, lipoamide, and NADH. Final concentrations of components in the reaction mixture were as follows: 125 μM NADH, 125 μM DTNB, 40 μM NAD+, 75 μM lipoamide in 25 mM potassium phosphate, and 1 mM EDTA pH 7.0. Compounds were tested initially at 10 μM. Compounds showing significant inhibition at 10 μM were tested in dose–response from 100 to 0.005 μM by serial dilutions. Curves were fit, and IC50 values were calculated using Prism dose–response inhibition analysis (four-parameter fit).

[3] = target: T2, Lpd protein (Mycobacterium tuberculosis, UniProt P9WHH9); experiment: Surface plasmon resonance (SPR) binding to immobilized Lpd; conditions: 25 °C
T2 construct: made in house
T2 sequence (P9WHH9 1-464): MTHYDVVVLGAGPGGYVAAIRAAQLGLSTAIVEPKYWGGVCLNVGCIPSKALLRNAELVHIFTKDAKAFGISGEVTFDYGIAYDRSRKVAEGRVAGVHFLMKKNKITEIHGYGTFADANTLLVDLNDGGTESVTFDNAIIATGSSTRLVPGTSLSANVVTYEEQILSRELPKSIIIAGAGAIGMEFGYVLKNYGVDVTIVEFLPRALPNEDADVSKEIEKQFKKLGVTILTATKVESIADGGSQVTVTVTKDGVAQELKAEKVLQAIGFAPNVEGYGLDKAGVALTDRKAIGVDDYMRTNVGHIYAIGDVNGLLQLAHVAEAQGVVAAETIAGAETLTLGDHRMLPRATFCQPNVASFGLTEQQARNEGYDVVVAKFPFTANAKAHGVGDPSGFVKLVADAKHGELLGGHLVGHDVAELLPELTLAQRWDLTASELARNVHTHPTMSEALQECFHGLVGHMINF

[4] = tested on: Mtb; design: method as in PMID 33527832; conditions: Figure 1, representative sulfonamide series inhibitors; cited from earlier work
[5] = target: T3, PDH complex (Mycobacterium tuberculosis, UniProt P9WHH9); experiment: PDH complex inhibition; type: biochemical
T3 sequence (P9WHH9 1-464): T2 sequence (P9WHH9 1-464)

[6] = target: T1, Mtb Lpd; conditions: read-out: Lpd IC50; Figure 1, representative sulfonamide series inhibitors; cited from earlier work
[7] = 1:1 Langmuir model, analyte line 013537

CC(=O)Nc1cccc(NC(=O)CN(C)S(=O)(=O)c2cc(C)cc(C(F)F)c2)c1 [1 (TDI-13537)]
inhibition of Mtb bacterial growth in the MIC assay ([1]; data not shown): did not show inhibition
potency improvement over des-methyl screen hit [2]: 15- to 20 fold
Kd [3, 7]: 0.241 µM
kd [3, 7]: 0.01243 s⁻¹
Kd ([3]; analyte line 013537-NADH): 0.291 µM
kd ([3]; analyte line 013537-NADH): 0.01141 s⁻¹

CCN(CC(=O)Nc1ccc(N2CCOCC2)cc1)S(=O)(=O)c1cc(C)c(F)c(C(F)(F)F)c1 [Compound 2]
IC50 [2]: 0.37 µM
potency improvement over des-methyl screen hit [2]: 15- to 20 fold

CCOC(=O)c1c(C)n[nH]c1S(=O)(=O)N(C)CC(=O)Nc1ccc(F)cc1 [Compound Z740306332]
inhibition at 10 µM [2]: 9.6 ± 1.8%
IC50 [2]: 100 µM

CCN(CC(=O)Nc1ccc(N2CCOCC2)cc1)S(=O)(=O)c1ccc(F)c(C(F)(F)F)c1 [Compound Z819807984]
inhibition at 10 µM [2]: 68.9 ± 0.9%
IC50 [2]: 5 ± 0.04 µM

COC(=O)c1cccc(NC2CCN(C(=O)c3cc(C)cc4cn[nH]c34)CC2)c1 [Compound Z1464810837]
inhibition at 10 µM [2]: 15.7 ± 4.6%
IC50 [2]: 30 µM

CCN(CC(=O)Nc1cccc(OC)c1)S(=O)(=O)c1cccc2c1NC(=O)CO2 [Compound Z1601661851]
inhibition at 10 µM [2]: 18.5 ± 1.6%
IC50 [2]: 30 µM

CN(CC(=O)Nc1cccc(F)c1)S(=O)(=O)c1cccc2c1NC(=O)CO2 [Compound Z1601662276]
inhibition at 10 µM [2]: 12.7 ± 1.2%
IC50 [2]: 100 µM

CC(=O)Nc1cccc(NC(=O)CN(C)S(=O)(=O)c2cccc(C(F)F)c2)c1 [Compound Z1765676493]
inhibition at 10 µM [2]: 69.1 ± 2.2%
IC50 [2]: 3.5 ± 2.8 µM

COc1ccc(NC(=O)CN(C)S(=O)(=O)c2cc(Br)cnc2N)cc1 [SL827]
Mtb MIC [4]: > 100 µM

Cc1cc(S(=O)(=O)N(C)CC(=O)Nc2ccn(C)c(=O)c2)c2[nH]ncc2c1 [TDI-010705]
Mtb MIC [1]: 4 µM
Mtb MIC [4]: 3.7 µM

Cc1cc(S(=O)(=O)N2CCC[C@H]2C(=O)Nc2ccn(C)c(=O)c2)c2[nH]ncc2c1 [TDI-011002]
Mtb MIC [1]: 25 µM
IC50 [5]: 0.19 µM
IC50 [6]: 0.05 µM
Mtb MIC [4]: 25 µM
